From patent US20240009266A1, “PHARMACEUTICAL COMBINATIONS COMPRISING A PEPTIDE CXCR4 INHIBITOR AND A TAXANE FOR TREATING CANCER” (POLYPHOR AG, priority 2020, published 2024)

What was measured:
[1] = system: breast cancer PDX Ma15169; details: for tumor growth inhibition / therapeutic effect (in words): Ma15169 PDX, humanized NOG-EXL mice, treatment day 154-182; for T/C value (treated-to-control tumor volume) at the last day of the study: day 183, Paclitaxel 10 mg/kg i.v. twice weekly, treatment from day 154, 29 days; for response rating according to RECIST criteria: from T/C at day 183 (last day of the study)
Protocol: The study was designed to determine the response of the breast cancer PDX Ma15169 to treatment with Paclitaxel single agent, Balixafortide single agent and the combination of both in humanized NOG-EXL mice. Humanized NOG-EXL mice bearing the breast cancer PDX Ma15169 were treated with Paclitaxel and Balixafortide according to Table 1. Ma15169 is a patient derived xenograft (PDX) that was from a patient with an invasive ductal carcinoma (ypT1a ypN1a R0 G3 L1 V1). The patient tumour was ER/PR as well as Her-2 negative. The tumour material was expanded in 9 donor mice (NOG, Taconic; https://www.taconic.com/mouse-model/ciea-nog-mouse) and fragments of about 10 mm3 were each implanted subcutaneously into the flank of 50 humanized NOG-EXL mice; at this time, the passage number of Ma15169 was #4.
Female NOG-EXL mice with an age of about 4 weeks were used for the constitution of human immune cells. 24 hours before CD34+ cell inoculation mice were irradiated with 1Gy. Human CD34+ cells were isolated from fresh cord blood within the laboratories of EPO (Experimental Pharmacology & Oncology Berlin-Buch GmbH, Berlin-Buch, Germany) and preserved in liquid nitrogen until use. For the study MV16883 a pool of 5 different donors (CB AG 101, CB AG 97, CB KR 104, CB AG 106, CB AG 107) prepared. After thawing the cells were washed with PBS, pooled and washed again followed by Trypan blue staining and cell counting using Neubauer chamber. A total of 5×10^4 vital cells were resuspended in 200 μl PBS and injected intravenously into the tail vain of all mice.
Determination of human immune cells by FACS was performed at days 46, 84 and 115 after cell inoculation (leucocytes CD45+, B cells CD19+, T cells CD3+, NK cells CD56+/CD16+ and monocytes CD14+; Human Immunophenotyping 8-color-Kit (Miltenyi)). The mice were weighed weekly and monitored for general health two times weekly.
The PDX Ma15169 is maintained by EPO (Experimental Pharmacology & Oncology Berlin-Buch GmbH, Berlin-Buch, Germany) as in vivo passage; the passage number for this study was #4. Donor mice (female NOG; Taconic) with tumors of about 1 cm3 were used for the preparation of this study MV16883.
After removal of the tumor tissue from donor mice, the tumors were cut into fragments (2-3 mm diameter—approximately 10 mm3) and placed in cooled RPMI 1640 culture medium until s.c. implantation within 30 minutes. The humanized NOG-EXL mice were anaesthetized with Etomidate and received a small incision in the skin of the left flank. The tumor fragments (one fragment/mouse) were implanted with tweezers and the incision closed with a suture clip (#310417, Covetrus GmbH). The clips were removed after seven days and mice controlled two times weekly by means of palpation. The implantation of tumor fragments was performed 122 days after the inoculation of CD34+ cells.
Tumor bearing mice were stratified into 4 treatment groups according to their tumor volumes at day 154 post CD34+ cell inoculation (32 days after tumor implantation). […] During stratification the animals were individually marked by earmarks.
Paclitaxel (Taxomedac™ comprising paclictaxel, citric acid, ethanol and PEG (30-50) castor oil) was given i.v. at a dose of 10 mg/kg twice weekly. Balixafortide was given s.c. at a dose of 20 mg/kg once daily for the first 5 days and twice daily for 5 days followed by treatment breaks of 2 days until the end of treatment period (FIG. 1). Total treatment duration was 29 days. Successful engraftment of human CD34+ cells was checked by flow cytometry (FACS).
Changes in the human immune cell population in blood were followed-up at the end of the study by FACS analysis.

[2] = system: other potential target receptors; assay: In vitro receptor binding studies, other receptors
human CXCR4 receptor = human CXCR4 receptor (Homo sapiens, UniProt P61073); assay: In vitro receptor binding studies, human CXCR4 receptor
Chain of human CXCR4 receptor (P61073 whole entry): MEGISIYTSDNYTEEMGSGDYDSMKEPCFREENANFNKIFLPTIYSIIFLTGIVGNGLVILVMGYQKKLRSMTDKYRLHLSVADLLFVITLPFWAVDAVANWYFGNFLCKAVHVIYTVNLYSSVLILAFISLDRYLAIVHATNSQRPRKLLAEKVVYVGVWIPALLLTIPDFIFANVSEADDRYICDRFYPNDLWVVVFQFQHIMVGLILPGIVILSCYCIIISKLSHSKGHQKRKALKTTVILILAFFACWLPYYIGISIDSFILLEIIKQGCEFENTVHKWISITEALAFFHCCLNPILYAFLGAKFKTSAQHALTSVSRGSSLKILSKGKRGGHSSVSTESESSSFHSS

Molecule | tumor growth inhibition / therapeutic effect (in words) [1] | T/C value (treated-to-control tumor volume) at the last day of the study ([1]; Balixafortide 20 mg/kg s.c.) [%] | response rating according to RECIST criteria [1] | binding to other potential target receptors (in words) [2] | optimum T/C value ([1]; found at day 168, Balixafortide 20 mg/kg s.c., p>0.05) [%] | affinity for the human CXCR4 receptor (in words) (human CXCR4 receptor)
CC(=O)O[C@H]1C(=O)[C@@]2(C)[C@H]([C@H](OC(=O)c3ccccc3)[C@]3(O)C[C@H](OC(=O)[C@H](O)[C@@H](NC(=O)c4ccccc4)c4ccccc4)C(C)=C1C3(C)C)[C@]1(OC(C)=O)CO[C@@H]1C[C@@H]2O [Paclitaxel, reference compound] | significant tumor growth inhibition | 42 | stable disease | – | – | –
Cyclo(-Tyr-His-Ala-Cys-Ser-Ala-^DPro-Dab-Arg-Tyr-Cys-Tyr-Gln-Lys-^DPro-Pro-) having a disulfide bond between Cys^4 and Cys^11 [Balixafortide] | inhibited tumor growth marginally | 107 | progressive disease | general lack of significant binding | 79 | significant affinity
